Values quoted from earlier work, collected in patent US12124166B2, “Negative resist formulation for producing undercut pattern profiles” (Merck Patent GmbH, priority 2017, dated 2024).

settings: Table 9

| pKa (Quencher's pKa values) | Structure (SMILES) |
| --- | --- |
| 6.92 | COCCOCCN(CCOCCOC)CCOCCOC [MNNE, 2-(2-methoxyethoxy)-N,N-bis[2-(2-methoxyethoxy)ethyl]-Ethanamine] |
| 9.91 | CCCN(C)CCC [N-Methyldipropylamine] |
| −3.04 | c1ccc(N(c2ccccc2)c2ccccc2)cc1 [DPA, triphenylamine] |
| 6.78 | OCCn1ccnc1 [IA, 1-(2-hydroxyethylimidazole)] |
| 4.25 | CC(C)c1cccc(C(C)C)c1N [DIPA, 2,6-diisopropylaniline] |
| 8.22 | CCc1ncc[nH]1 [2EI, 2-Ethylimidazole] |

| Structure (SMILES) | pKa (Quencher's pKa values) |
| --- | --- |
| CCN(C(C)C)C(C)C [N,N diisopropylethylamine] | 10.98 |

same assay, conditions: in water; stated in the Materials descriptions of commercial quenchers

| pKa in water | Structure (SMILES) |
| --- | --- |
| ~10.08 | CCCCCCCCCCCCCCCCCC1=NCCN1CCO [Addi-MC, 2-(2-heptadecyl-4,5-dihydro-1H-imidazol-1-yl)ethan-1-ol] |
| ~6.92 | COCCOCCN(CCOCCOC)CCOCCOC [MNNE, 2-(2-methoxyethoxy)-N,N-bis[2-(2-methoxyethoxy)ethyl]-Ethanamine] |
| ~−3.04 | c1ccc(N(c2ccccc2)c2ccccc2)cc1 [DPA, triphenylamine] |
| ~6.78 | OCCn1ccnc1 [IA, 1-(2-hydroxyethylimidazole)] |
| ~4.25 | CC(C)c1cccc(C(C)C)c1N [DIPA, 2,6-diisopropylaniline] |
| ~8.22 | CCc1ncc[nH]1 [2EI, 2-Ethylimidazole] |
